Test results published in patent publication US20230210888A1, “PHOTOTHERANOSTIC NANOAGENTS WITH EXCELLENT ATHEROSCLEROTIC PLAQUE-TARGETING AND PLAQUE-PENETRATING PROPERTIES, AND USE THEREOF” (Korea University Research and Business Foundation, priority 2021, published 2023).

Assays:
[1] = Singlet oxygen generation (SOSG fluorescence) under 670 nm laser; assay type: physicochemical; details: PBS with 1% Tween 20, 5 μM based on Ce6, 670 nm 50 mW/cm2, 0-120 s
Protocol: All three solutions contained 1 μM SOSG. The fluorescence intensity of SOSG (Ex(excitation)/Em(emission): 504 nm/525 nm) was measured by irradiating a laser (670 nm, 50 mW/cm^2) every 30 seconds from 0 to 120 seconds.

[2] = Skin phototoxicity after intravenous injection and 670 nm laser; assay type: in vivo, Balb/c mice; details: 2 mg/kg (equiv. of Ce6) iv, 670 nm 50 mW/cm2 5 min 1 h after injection; 2nd and 3rd days
Protocol: One hour after injection, a near-infrared (670 nm) laser (50 mW/cm^2) was irradiated for 5 minutes.

Q: Which results are given for “(17S,18S)-18-(2-carboxyethyl)-20-(carboxymethyl)-12-ethenyl-7-ethyl-3,8,13,17-tetramethyl-17,18,22,23-tetrahydroporphyrin-2-carboxylic acid [Ce6]”?
A: SOSG fluorescence intensity (singlet oxygen generation) [1]: tendency to increase similarly to each other; skin phototoxicity (erythema) [2]: erythema occurred
